According to paper PMC3813382 (The Journal of General Physiology, 2013):

Biological target: T1, Slo2.1 (Homo sapiens, UniProt Q6UVM3)
T1 sequence (Q6UVM3 1-1135): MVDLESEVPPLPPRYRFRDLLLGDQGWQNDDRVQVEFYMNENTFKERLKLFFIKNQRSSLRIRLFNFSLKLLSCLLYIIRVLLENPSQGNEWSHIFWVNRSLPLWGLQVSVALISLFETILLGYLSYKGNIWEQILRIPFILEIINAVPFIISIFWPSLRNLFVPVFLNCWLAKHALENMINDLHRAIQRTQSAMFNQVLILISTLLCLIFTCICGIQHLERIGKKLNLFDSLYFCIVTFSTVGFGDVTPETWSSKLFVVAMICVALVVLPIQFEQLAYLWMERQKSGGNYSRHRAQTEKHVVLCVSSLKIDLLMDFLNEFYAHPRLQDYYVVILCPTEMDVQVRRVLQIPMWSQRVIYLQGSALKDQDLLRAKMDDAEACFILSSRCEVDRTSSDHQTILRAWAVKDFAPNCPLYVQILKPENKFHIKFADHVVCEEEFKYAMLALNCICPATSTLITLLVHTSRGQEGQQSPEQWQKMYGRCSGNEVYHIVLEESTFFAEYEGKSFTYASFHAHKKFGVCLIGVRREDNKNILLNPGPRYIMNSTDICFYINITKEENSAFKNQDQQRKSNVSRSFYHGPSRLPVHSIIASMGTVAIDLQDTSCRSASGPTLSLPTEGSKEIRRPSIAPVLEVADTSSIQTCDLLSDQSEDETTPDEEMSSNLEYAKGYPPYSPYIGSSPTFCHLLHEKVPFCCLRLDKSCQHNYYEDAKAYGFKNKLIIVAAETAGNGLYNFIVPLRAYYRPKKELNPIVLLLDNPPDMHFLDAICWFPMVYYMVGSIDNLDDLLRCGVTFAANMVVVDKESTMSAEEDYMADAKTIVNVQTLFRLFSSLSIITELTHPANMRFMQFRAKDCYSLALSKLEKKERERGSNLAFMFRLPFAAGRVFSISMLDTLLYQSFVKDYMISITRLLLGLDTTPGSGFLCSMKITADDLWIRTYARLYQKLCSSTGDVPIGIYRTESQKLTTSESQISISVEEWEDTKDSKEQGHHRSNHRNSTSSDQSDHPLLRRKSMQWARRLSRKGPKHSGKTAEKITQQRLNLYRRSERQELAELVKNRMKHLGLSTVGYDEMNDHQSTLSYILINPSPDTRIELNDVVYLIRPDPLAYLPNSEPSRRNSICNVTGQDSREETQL
Assay: Excised inside-out macropatch recordings of ISlo2.1 from oocytes
Format: cell-based
Conditions: 10 µM in bath (cytosolic) solution

effect on run-down of macroscopic ISlo2.1 in excised patches: preventable
SMILES: CCCCCCCC(=O)OC[C@H](COP(=O)(O)O[C@@H]1[C@H](O)[C@H](O)[C@@H](OP(=O)(O)O)[C@H](OP(=O)(O)O)[C@H]1O)OC(=O)CCCCCCC [PI(4,5)P2 diC8, phosphatidylinositol 4,5-bisphosphate diC8]
